Laboratory results as given in paper PMC4186449 (Pharmacology Research & Perspectives, 2014).

Biological target: T1, LdTOPII (Leishmania donovani, UniProt Q9XZN0)
T1 sequence (Q9XZN0 1-1236): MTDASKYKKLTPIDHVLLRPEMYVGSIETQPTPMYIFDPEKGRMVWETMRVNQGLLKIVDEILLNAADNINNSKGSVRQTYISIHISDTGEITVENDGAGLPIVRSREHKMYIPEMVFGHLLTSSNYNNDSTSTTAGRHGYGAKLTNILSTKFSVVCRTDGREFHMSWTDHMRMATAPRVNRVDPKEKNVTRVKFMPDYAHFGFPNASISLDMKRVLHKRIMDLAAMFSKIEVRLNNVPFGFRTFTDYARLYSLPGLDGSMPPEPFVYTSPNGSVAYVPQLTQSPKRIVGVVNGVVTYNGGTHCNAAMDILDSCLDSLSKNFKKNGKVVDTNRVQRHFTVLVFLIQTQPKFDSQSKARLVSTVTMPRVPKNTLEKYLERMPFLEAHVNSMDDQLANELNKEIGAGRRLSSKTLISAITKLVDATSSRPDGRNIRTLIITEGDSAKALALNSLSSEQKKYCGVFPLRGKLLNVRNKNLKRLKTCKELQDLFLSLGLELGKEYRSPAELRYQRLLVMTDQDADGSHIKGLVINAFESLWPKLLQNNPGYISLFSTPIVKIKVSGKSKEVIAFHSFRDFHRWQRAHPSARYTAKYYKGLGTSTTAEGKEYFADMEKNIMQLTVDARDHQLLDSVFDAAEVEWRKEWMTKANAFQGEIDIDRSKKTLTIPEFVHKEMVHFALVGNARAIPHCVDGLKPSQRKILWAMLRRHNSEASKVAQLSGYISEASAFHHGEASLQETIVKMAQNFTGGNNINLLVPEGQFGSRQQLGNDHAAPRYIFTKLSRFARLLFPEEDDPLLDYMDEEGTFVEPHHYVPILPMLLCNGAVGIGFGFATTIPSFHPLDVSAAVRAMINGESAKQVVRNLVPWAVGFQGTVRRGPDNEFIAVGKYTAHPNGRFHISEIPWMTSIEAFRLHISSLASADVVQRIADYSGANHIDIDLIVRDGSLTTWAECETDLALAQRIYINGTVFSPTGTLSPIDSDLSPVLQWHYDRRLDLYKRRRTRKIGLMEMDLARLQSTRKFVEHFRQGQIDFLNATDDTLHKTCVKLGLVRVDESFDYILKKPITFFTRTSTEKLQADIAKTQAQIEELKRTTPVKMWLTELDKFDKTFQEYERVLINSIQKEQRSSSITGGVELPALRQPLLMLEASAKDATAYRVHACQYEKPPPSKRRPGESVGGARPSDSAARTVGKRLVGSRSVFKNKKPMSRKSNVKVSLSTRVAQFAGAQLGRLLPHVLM
Conditions: 2 mmol/L ATP, 30°C

Nc1ncnc2c1ncn2[C@@H]1O[C@H](COP(=O)(O)OP(=O)(O)OP(=O)(O)O)[C@@H](O)[C@H]1O [ATP]
pyruvate kinase/lactate dehydrogenase coupled ATPase assay: JVPH3 and JVPH4 did not interfere with LdTOPII-mediated ATP hydrolysis
